From patent publication US20230250096A1, “SUBSTITUTED PHENYL-1H-PYRROLO[2,3-c] PYRIDINE DERIVATIVES” (Janssen Pharmaceutica NV, priority 2021, published 2023)

Legend:
[1] = molecular target: T1, menin/MLL (terbium chelate-labeled menin, FITC-MBM1 peptide) (Homo sapiens, UniProt O00255, T541A); assay: Menin/MLL homogenous time-resolved fluorescence (HTRF) assay; type: binding; settings: 30 min incubation
T1 construct: Menin (a.a 1-610-6xhis tag, 2.3 mg/mL in 20 mM Hepes)
T1 sequence (O00255 with tags, fused parts or gaps T541A): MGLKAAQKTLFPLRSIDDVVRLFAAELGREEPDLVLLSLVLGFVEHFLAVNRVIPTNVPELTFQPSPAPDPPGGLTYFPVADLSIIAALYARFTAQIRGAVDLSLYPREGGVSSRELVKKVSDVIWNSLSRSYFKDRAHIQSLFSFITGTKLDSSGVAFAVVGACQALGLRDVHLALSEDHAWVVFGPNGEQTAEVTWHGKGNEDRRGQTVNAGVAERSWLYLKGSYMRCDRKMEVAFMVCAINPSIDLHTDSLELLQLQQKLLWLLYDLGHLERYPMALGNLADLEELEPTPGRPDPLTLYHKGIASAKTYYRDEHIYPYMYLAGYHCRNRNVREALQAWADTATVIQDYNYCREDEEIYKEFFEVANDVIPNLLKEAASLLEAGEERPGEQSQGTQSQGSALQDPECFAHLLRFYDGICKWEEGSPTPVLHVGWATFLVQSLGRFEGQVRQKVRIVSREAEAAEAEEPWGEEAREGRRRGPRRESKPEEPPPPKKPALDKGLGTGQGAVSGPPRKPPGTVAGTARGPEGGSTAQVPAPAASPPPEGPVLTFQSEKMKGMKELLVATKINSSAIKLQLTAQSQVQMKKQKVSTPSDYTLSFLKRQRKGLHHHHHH
Outline: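 Competition binding read by time-resolved FRET (FITC 520 nm over terbium 490 nm) after compound meets labeled menin 1-610-His […] for 30 min, then FITC-MBM1 (75 nM) for 15 min, ambient temperature, 0.5% DMSO. Eleven-point four-fold dilutions, usually starting at 10 μM, fitted to four-parameter curves for IC50.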

[2] = test system: MEIS1 mRNA expression; assay: MEIS1 mRNA expression assay (Quantigene Singleplex) in MOLM14 cells; type: cell-based, human; settings: 48 hours incubation
Outline: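 Read-out: MEIS1 transcript counts, background-subtracted and divided by RPL28, expressed as fold change over DMSO-treated cells, then dose-response modelled for IC50. MOLM14 cells (3,750/well) received graded compound for 48 h before lysis and QuantiGene hybridization at 55 °C.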

Cc1cncc2c1c(C[C@@H]1CCN([C@@H](CN(C)C)C3CCOCC3)C1)cn2-c1ccc(F)cc1C(=O)N(C)C(C)C (single isomer, unassigned) [Compound 240a]
IC50 [1]: 0.407 nM
IC50 ([2]; Homo sapiens, MOLM-14, 48 h): 291 nM

Cc1cncc2c1c(C[C@@H]1CCN([C@H](CN(C)C)C3CCOCC3)C1)cn2-c1ccc(F)cc1C(=O)N(C)C(C)C (single isomer, unassigned) [Compound 240b]
IC50 [1]: 0.151 nM
IC50 ([2]; Homo sapiens, MOLM-14, 48 h): 38 nM

CCC(C1CCN(C(C)=O)CC1)N1CC[C@@H](Cc2cn(-c3ccc(F)cc3C(=O)N(C)C(C)C)c3cncc(C)c23)C1 (single isomer, unassigned) [Compound 246]
IC50 [1]: 0.057 nM
IC50 [2]: 16 nM

CCC(C1CCN(C(C)=O)CC1)N1CC[C@@H](Cc2cn(-c3ccc(F)cc3C(=O)N(C)C(C)C)c3cncc(C)c23)C1 (single isomer, unassigned) [Compound 247]
IC50 [1]: 0.179 nM
IC50 [2]: 116 nM

COCC[C@H](C1CCOCC1)N1CC[C@@H](Cc2cn(-c3ccc(F)cc3C(=O)N(C)C(C)C)c3cncc(C)c23)C1 (single isomer, unassigned) [Compound 252a]
IC50 [1]: 0.341 nM
IC50 ([2]; Homo sapiens, MOLM-14, 48 h): 69 nM

COCC[C@@H](C1CCOCC1)N1CC[C@@H](Cc2cn(-c3ccc(F)cc3C(=O)N(C)C(C)C)c3cncc(C)c23)C1 (single isomer, unassigned) [Compound 252b]
IC50 [1]: 0.25 nM
IC50 ([2]; Homo sapiens, MOLM-14, 48 h): 315 nM

Cc1cncc2c1c(C[C@@H]1CCN([C@H](CCO)C3CCOCC3)C1)cn2-c1ccc(F)cc1C(=O)N(C)C(C)C (single isomer, unassigned) [Compound 253a]
IC50 [1]: 1.47 nM
IC50 ([2]; Homo sapiens, MOLM-14, 48 h): ~540 nM

Cc1cncc2c1c(C[C@@H]1CCN([C@@H](CCO)C3CCOCC3)C1)cn2-c1ccc(F)cc1C(=O)N(C)C(C)C (single isomer, unassigned) [Compound 253b]
IC50 [1]: 1.73 nM
IC50 ([2]; Homo sapiens, MOLM-14, 48 h): > 1000 nM

CC(=O)N1CCC(N2CC(Cc3cn(-c4ccc(F)cc4C(=O)N(C)C(C)C)c4cncc(C)c34)C2)C[C@H]1C (single isomer, unassigned) [Compound 292b]
IC50 [1]: 0.562 nM
IC50 ([2]; Homo sapiens, MOLM-14, 48 h): ~586 nM

CC(=O)N1CCC(N2CC(Cc3cn(-c4ccc(F)cc4C(=O)N(C)C(C)C)c4cncc(C)c34)C2)C[C@@H]1C (single isomer, unassigned) [Compound 293a]
IC50 [1]: 0.459 nM
IC50 ([2]; Homo sapiens, MOLM-14, 48 h): 148 nM

CC(=O)N1CCC(N2CC(Cc3cn(-c4ccc(F)cc4C(=O)N(C)C(C)C)c4cncc(C)c34)C2)C[C@@H]1C (single isomer, unassigned) [Compound 293b]
IC50 [1]: 0.152 nM
IC50 [2]: 259 nM

Cc1cncc2c1c(CC1CN([C@H]3CCN4C(=O)CCC4C3)C1)cn2-c1ccc(F)cc1C(=O)N(C)C(C)C (single isomer, unassigned) [Compound 309b]
IC50 [1]: 0.111 nM
IC50 ([2]; Homo sapiens, MOLM-14, 48 h): > 1000 nM

CC(=O)N1CCC(CN2CC[C@@H](Cc3cn(-c4ccc(F)cc4C(=O)N(C[C@@H](C)O)C(C)C)c4cncc(C)c34)C2)CC1 (single isomer, unassigned) [Compound 320a]
IC50 [1]: 0.189 nM
IC50 ([2]; Homo sapiens, MOLM-14, 48 h): 24 nM

CC(=O)N1CCC(CN2CC[C@@H](Cc3cn(-c4ccc(F)cc4C(=O)N(C[C@H](C)O)C(C)C)c4cncc(C)c34)C2)CC1 (single isomer, unassigned) [Compound 320b]
IC50 [1]: 0.104 nM
IC50 ([2]; Homo sapiens, MOLM-14, 48 h): 62 nM

Cc1cncc2c1c(C[C@@H]1CCN(C[C@H]3CCNC(=O)CC3)C1)cn2-c1ccc(F)cc1C(=O)N1CCC2CC21 (single isomer, unassigned) [Compound 351a]
IC50 [1]: 0.04 nM
IC50 ([2]; Homo sapiens, MOLM-14, 48 h): 12 nM

Cc1cncc2c1c(C[C@@H]1CCN(C[C@@H]3CCNC(=O)CC3)C1)cn2-c1ccc(F)cc1C(=O)N1CCC2CC21 (single isomer, unassigned) [Compound 351b]
IC50 [1]: 0.255 nM
IC50 ([2]; Homo sapiens, MOLM-14, 48 h): 182 nM

Cc1cncc2c1c(C[C@@H]1CCN(CC3CCOCC3)C1)cn2-c1ccc(F)cc1C(=O)N1CCC[C@]1(C)CO (single isomer, unassigned) [Compound 362a]
IC50 [1]: 0.149 nM
IC50 ([2]; Homo sapiens, MOLM-14, 48 h): 184 nM

Cc1cncc2c1c(C[C@@H]1CCN(CC3CCOCC3)C1)cn2-c1ccc(F)cc1C(=O)N1CCCC1C(C)O (single isomer, unassigned) [Compound 363a]
IC50 [1]: 0.228 nM
IC50 [2]: 359 nM

Cc1cncc2c1c(C[C@@H]1CCN(CC3CCOCC3)C1)cn2-c1ccc(F)cc1C(=O)N1CCCC1C(C)O (single isomer, unassigned) [Compound 363b]
IC50 [1]: 0.093 nM
IC50 [2]: ~174 nM

Cc1cncc2c1c(C[C@@H]1CCN(CC3CCOCC3)C1)cn2-c1ccc(F)cc1C(=O)N1CC[C@@H](O)C1(C)C (single isomer, unassigned) [Compound 364a]
IC50 [1]: 0.098 nM
IC50 ([2]; Homo sapiens, MOLM-14, 48 h): 225 nM

Cc1cncc2c1c(C[C@@H]1CCN(CC3CCOCC3)C1)cn2-c1ccc(F)cc1C(=O)N1CC[C@H](O)C1(C)C (single isomer, unassigned) [Compound 364b]
IC50 [1]: 0.292 nM
IC50 ([2]; Homo sapiens, MOLM-14, 48 h): ~670 nM

Cc1cncc2c1c(C[C@@H]1CCN(CC3CCOCC3)C1)cn2-c1ccc(F)cc1C(=O)N(C[C@@H](C)O)C(C)C (single isomer, unassigned) [Compound 365a]
IC50 [1]: 0.102 nM
IC50 ([2]; Homo sapiens, MOLM-14, 48 h): 35 nM

Cc1cncc2c1c(CC1CCN(C(CCC3OCCO3)C(C)C)C1)cn2-c1ccc(F)cc1C(=O)N(C)C(C)C (single isomer, unassigned) [Compound 366]
IC50 [1]: 0.067 nM
IC50 ([2]; Homo sapiens, MOLM-14, 48 h): ~319 nM

Cc1cncc2c1c(C[C@@H]1CCN([C@H](CCC3OCCO3)C(C)C)C1)cn2-c1ccc(F)cc1C(=O)N(C)C(C)C (single isomer, unassigned) [Compound 367]
IC50 [1]: 0.201 nM
IC50 ([2]; Homo sapiens, MOLM-14, 48 h): > 1000 nM

Cc1cncc2c1c(C=C1CCN(CC3CCOCC3)C1)cn2-c1ccc(F)cc1C(=O)N(C)C(C)C (single isomer, unassigned) [Compound 523a]
IC50 [1]: 0.376 nM
IC50 [2]: > 1000 nM

Cc1cncc2c1c(C=C1CCN(CC3CCOCC3)C1)cn2-c1ccc(F)cc1C(=O)N(C)C(C)C (single isomer, unassigned) [Compound 523b]
IC50 [1]: 0.124 nM
IC50 [2]: 62 nM

Cc1cncc2c1c(C=C1CCN(C)C1)cn2-c1ccc(F)cc1C(=O)N(C)C(C)C (single isomer, unassigned) [Compound 524a]
IC50 [1]: 19 nM
IC50 [2]: 2560 nM

Cc1cncc2c1c(C=C1CCN(C)C1)cn2-c1ccc(F)cc1C(=O)N(C)C(C)C (single isomer, unassigned) [Compound 524b]
IC50 [1]: 8.62 nM
IC50 ([2]; Homo sapiens, MOLM-14, 48 h): 2120 nM

Cc1cncc2c1c(C[C@@H]1CCN(CC3CCOCC3)C1)cn2-c1ccc(F)cc1C(=O)N1CCC(O)C1C (stereo in doubt) [Compound 358]
IC50 [1]: 0.223 nM
IC50 ([2]; Homo sapiens, MOLM-14, 48 h): 386 nM

COCCN(C)CCCC(C(C)C)N1CCC(Cc2cn(-c3ccc(F)cc3C(=O)N(C)C(C)C)c3cncc(C(F)(F)F)c23)C1 (stereo not drawn) [Compound 7]
IC50 [1]: 0.305 nM
IC50 ([2]; Homo sapiens, MOLM-14, 48 h): 158 nM

CCC([C@H]1C[C@@H](N2C[C@H]3CN(C(C)=O)C[C@@H]3C2)C1)N1CC[C@@H](Cc2cn(-c3ccc(F)cc3C(=O)N(C)C(C)C)c3cncc(Cl)c23)C1 (stereo partly drawn) [Compound 26a]
IC50 [1]: 0.036 nM
IC50 ([2]; Homo sapiens, MOLM-14, 48 h): 7 nM

CCC([C@H]1C[C@@H](N2C[C@H]3CN(C(C)=O)C[C@@H]3C2)C1)N1CC[C@@H](Cc2cn(-c3ccc(F)cc3C(=O)N(C)C(C)C)c3cncc(Cl)c23)C1 (stereo partly drawn) [Compound 26b]
IC50 [1]: ~0.036 nM
IC50 [2]: 29 nM

Cc1cncc2c1c(CC1CN([C@@H](C(C)C)[C@H]3C[C@H](N4CCC(S(C)(=O)=O)CC4)C3)C1)cn2-c1ccc(F)cc1C(=O)N(C)C(C)C [Compound 33b]
IC50 [1]: 0.03 nM
IC50 ([2]; Homo sapiens, MOLM-14, 48 h): 23 nM
